Experiments:
SU-DHL-6-epst = test: Combination study of Compound 1 or CAL-101 and a second therapeutic agent (Synergy Score, CI50); assay type: cell-based
SUDHL6 = test: Compound 1 with dexamethasone, CellTiter-Glo viability 72 h, combination index; assay type: cell-based; conditions: SUDHL6
Protocol: The effects of Compound 1 with dexamethasone were examined in a panel of cell lines. Cells were cultured and assayed as follows. Compound 1 was serially diluted with cell culture medium and various DMSO concentrations. The top concentration of Compound 1 exposed to cells was 3 uM for cell lines other than WSU-NHL and DOHH2. For WSU-NHL and DOHH2 cell lines, the top concentration of Compound 1 exposed to the cells was 0.3 uM. Dexamethasone was serially diluted in culture media and phosphate buffered saline (PBS). The top concentration of dexamethasone used on cells was 3 uM. Cells were at least 73% viable and were counted and diluted for plating at a density of about 92,000 cell/mL, 130 uL cells per well in 96 well plates for SUDHL6, Karpas 422, SUDHL4, WSU-NHL, RL, and DOHH2 cell lines. The SUDHL10 cell line was plated at a density of about 46,000 cells/mL, 130 uL cells per well in 96 well plates.
Various concentrations of Compound 1 and various combinations of dexamethasone were added to various wells of cells. Single agents (Compound 1 or dexamethasone alone) were also added to some wells of cells. Cells were incubated with compounds for 72 hours. To assay for effects of the compounds on cell viability, a CellTiter-Glo® luminescent cell viability assay (commercially available) was used. To each plate of cells, 100 uL CellTiter-Glo reagent was added, incubated, and luminescence quantified using a […].
The result for cell line SUDHL6 is depicted in FIG. 12 and in Table 12. […] Table 12 depicts combination index (CI) values for different combinations of dexamethasone/Compound 1 concentrations.

C[C@H](Nc1ncnc2[nH]cnc12)c1cc2cccc(Cl)c2c(=O)n1-c1ccccc1 [Compound 1, (S)-3-(1-((9H-purin-6-yl)amino)ethyl)-8-chloro-2-phenylisoquinolin-1(2H)-one]
CI50 growth inhibition (SU-DHL-6-epst; combination with Dexamethasone): T (T=0.5 to <0.7)
CI50 inhibition (SU-DHL-6-epst; combination with Dexamethasone): T (T=0.5 to <0.7)
Synergy Score growth inhibition (SU-DHL-6-epst; combination with Dexamethasone): A3 (A3=>3)
Synergy Score inhibition (SU-DHL-6-epst; combination with Dexamethasone): A2 (A2=1 to <3)
CI50 growth inhibition (SU-DHL-6-epst; combination with LEE011): S (S=0.01 to <0.5)
Synergy Score growth inhibition (SU-DHL-6-epst; combination with LEE011): A2 (A2=1 to <3)
Synergy Score inhibition (SU-DHL-6-epst; combination with LEE011): A1 (A1=0.0001 to <1)
CI50 growth inhibition (SU-DHL-6-epst; combination with PCI-32765): S (S=0.01 to <0.5)
CI50 inhibition (SU-DHL-6-epst; combination with PCI-32765): S (S=0.01 to <0.5)
Synergy Score growth inhibition (SU-DHL-6-epst; combination with PCI-32765): A3 (A3=>3)
Synergy Score inhibition (SU-DHL-6-epst; combination with PCI-32765): A2 (A2=1 to <3)
CI50 growth inhibition (SU-DHL-6-epst; combination with PD-0332991): S (S=0.01 to <0.5)
CI50 inhibition (SU-DHL-6-epst; combination with PD-0332991): S (S=0.01 to <0.5)
Synergy Score growth inhibition (SU-DHL-6-epst; combination with PD-0332991): A2 (A2=1 to <3)
Synergy Score inhibition (SU-DHL-6-epst; combination with PD-0332991): A2 (A2=1 to <3)
combination index (CI) (SUDHL6; Compound 1 1.4 nM + Dexamethasone 1.4 nM): E (E = >1)
combination index (CI) (SUDHL6; Compound 1 1.4 nM + Dexamethasone 4.1 nM): E (E = >1)
combination index (CI) (SUDHL6; Compound 1 1.4 nM + Dexamethasone 12.3 nM): E (E = >1)
combination index (CI) (SUDHL6; Compound 1 1.4 nM + Dexamethasone 37 nM): E (E = >1)
combination index (CI) (SUDHL6; Compound 1 1.4 nM + Dexamethasone 111.1 nM): A (A = 0.0001 to <0.3)
combination index (CI) (SUDHL6; Compound 1 1.4 nM + Dexamethasone 333.3 nM): A (A = 0.0001 to <0.3)
combination index (CI) (SUDHL6; Compound 1 1.4 nM + Dexamethasone 1000 nM): A (A = 0.0001 to <0.3)
combination index (CI) (SUDHL6; Compound 1 1.4 nM + Dexamethasone 3000 nM): A (A = 0.0001 to <0.3)
combination index (CI) (SUDHL6; Compound 1 4.1 nM + Dexamethasone 1.4 nM): E (E = >1)
combination index (CI) (SUDHL6; Compound 1 4.1 nM + Dexamethasone 4.1 nM): B (B = 0.3 to <0.5)
combination index (CI) (SUDHL6; Compound 1 4.1 nM + Dexamethasone 12.3 nM): E (E = >1)
combination index (CI) (SUDHL6; Compound 1 4.1 nM + Dexamethasone 37 nM): C (C = 0.5 to <0.7)
combination index (CI) (SUDHL6; Compound 1 4.1 nM + Dexamethasone 111.1 nM): A (A = 0.0001 to <0.3)
combination index (CI) (SUDHL6; Compound 1 4.1 nM + Dexamethasone 333.3 nM): A (A = 0.0001 to <0.3)
combination index (CI) (SUDHL6; Compound 1 4.1 nM + Dexamethasone 1000 nM): A (A = 0.0001 to <0.3)
combination index (CI) (SUDHL6; Compound 1 4.1 nM + Dexamethasone 3000 nM): A (A = 0.0001 to <0.3)
combination index (CI) (SUDHL6; Compound 1 12.3 nM + Dexamethasone 1.4 nM): E (E = >1)
combination index (CI) (SUDHL6; Compound 1 12.3 nM + Dexamethasone 4.1 nM): E (E = >1)
combination index (CI) (SUDHL6; Compound 1 12.3 nM + Dexamethasone 12.3 nM): E (E = >1)
combination index (CI) (SUDHL6; Compound 1 12.3 nM + Dexamethasone 37 nM): E (E = >1)
combination index (CI) (SUDHL6; Compound 1 12.3 nM + Dexamethasone 111.1 nM): A (A = 0.0001 to <0.3)
combination index (CI) (SUDHL6; Compound 1 12.3 nM + Dexamethasone 333.3 nM): A (A = 0.0001 to <0.3)
combination index (CI) (SUDHL6; Compound 1 12.3 nM + Dexamethasone 1000 nM): A (A = 0.0001 to <0.3)
combination index (CI) (SUDHL6; Compound 1 12.3 nM + Dexamethasone 3000 nM): A (A = 0.0001 to <0.3)
combination index (CI) (SUDHL6; Compound 1 37 nM + Dexamethasone 1.4 nM): E (E = >1)
combination index (CI) (SUDHL6; Compound 1 37 nM + Dexamethasone 4.1 nM): E (E = >1)
combination index (CI) (SUDHL6; Compound 1 37 nM + Dexamethasone 12.3 nM): E (E = >1)
combination index (CI) (SUDHL6; Compound 1 37 nM + Dexamethasone 37 nM): E (E = >1)
combination index (CI) (SUDHL6; Compound 1 37 nM + Dexamethasone 111.1 nM): A (A = 0.0001 to <0.3)
combination index (CI) (SUDHL6; Compound 1 37 nM + Dexamethasone 333.3 nM): A (A = 0.0001 to <0.3)
combination index (CI) (SUDHL6; Compound 1 37 nM + Dexamethasone 1000 nM): A (A = 0.0001 to <0.3)
combination index (CI) (SUDHL6; Compound 1 37 nM + Dexamethasone 3000 nM): A (A = 0.0001 to <0.3)
combination index (CI) (SUDHL6; Compound 1 111.1 nM + Dexamethasone 1.4 nM): E (E = >1)
combination index (CI) (SUDHL6; Compound 1 111.1 nM + Dexamethasone 4.1 nM): E (E = >1)
combination index (CI) (SUDHL6; Compound 1 111.1 nM + Dexamethasone 12.3 nM): E (E = >1)
combination index (CI) (SUDHL6; Compound 1 111.1 nM + Dexamethasone 37 nM): E (E = >1)
combination index (CI) (SUDHL6; Compound 1 111.1 nM + Dexamethasone 111.1 nM): A (A = 0.0001 to <0.3)
combination index (CI) (SUDHL6; Compound 1 111.1 nM + Dexamethasone 333.3 nM): A (A = 0.0001 to <0.3)
combination index (CI) (SUDHL6; Compound 1 111.1 nM + Dexamethasone 1000 nM): A (A = 0.0001 to <0.3)
combination index (CI) (SUDHL6; Compound 1 111.1 nM + Dexamethasone 3000 nM): A (A = 0.0001 to <0.3)
combination index (CI) (SUDHL6; Compound 1 333.3 nM + Dexamethasone 1.4 nM): E (E = >1)
combination index (CI) (SUDHL6; Compound 1 333.3 nM + Dexamethasone 4.1 nM): E (E = >1)
combination index (CI) (SUDHL6; Compound 1 333.3 nM + Dexamethasone 12.3 nM): E (E = >1)
combination index (CI) (SUDHL6; Compound 1 333.3 nM + Dexamethasone 37 nM): E (E = >1)
combination index (CI) (SUDHL6; Compound 1 333.3 nM + Dexamethasone 111.1 nM): A (A = 0.0001 to <0.3)
combination index (CI) (SUDHL6; Compound 1 333.3 nM + Dexamethasone 333.3 nM): A (A = 0.0001 to <0.3)
combination index (CI) (SUDHL6; Compound 1 333.3 nM + Dexamethasone 1000 nM): A (A = 0.0001 to <0.3)
combination index (CI) (SUDHL6; Compound 1 333.3 nM + Dexamethasone 3000 nM): A (A = 0.0001 to <0.3)
combination index (CI) (SUDHL6; Compound 1 1000 nM + Dexamethasone 1.4 nM): E (E = >1)
combination index (CI) (SUDHL6; Compound 1 1000 nM + Dexamethasone 4.1 nM): B (B = 0.3 to <0.5)
combination index (CI) (SUDHL6; Compound 1 1000 nM + Dexamethasone 12.3 nM): E (E = >1)
combination index (CI) (SUDHL6; Compound 1 1000 nM + Dexamethasone 37 nM): E (E = >1)
combination index (CI) (SUDHL6; Compound 1 1000 nM + Dexamethasone 111.1 nM): A (A = 0.0001 to <0.3)
combination index (CI) (SUDHL6; Compound 1 1000 nM + Dexamethasone 333.3 nM): A (A = 0.0001 to <0.3)
combination index (CI) (SUDHL6; Compound 1 1000 nM + Dexamethasone 1000 nM): A (A = 0.0001 to <0.3)
combination index (CI) (SUDHL6; Compound 1 1000 nM + Dexamethasone 3000 nM): A (A = 0.0001 to <0.3)
combination index (CI) (SUDHL6; Compound 1 3000 nM + Dexamethasone 1.4 nM): A (A = 0.0001 to <0.3)
combination index (CI) (SUDHL6; Compound 1 3000 nM + Dexamethasone 4.1 nM): A (A = 0.0001 to <0.3)
combination index (CI) (SUDHL6; Compound 1 3000 nM + Dexamethasone 12.3 nM): A (A = 0.0001 to <0.3)
combination index (CI) (SUDHL6; Compound 1 3000 nM + Dexamethasone 37 nM): A (A = 0.0001 to <0.3)
combination index (CI) (SUDHL6; Compound 1 3000 nM + Dexamethasone 111.1 nM): A (A = 0.0001 to <0.3)
combination index (CI) (SUDHL6; Compound 1 3000 nM + Dexamethasone 333.3 nM): A (A = 0.0001 to <0.3)
combination index (CI) (SUDHL6; Compound 1 3000 nM + Dexamethasone 1000 nM): A (A = 0.0001 to <0.3)
combination index (CI) (SUDHL6; Compound 1 3000 nM + Dexamethasone 3000 nM): A (A = 0.0001 to <0.3)

From patent US20240325398A1, “COMBINATION THERAPIES” (Infinity Pharmaceuticals, Inc., priority 2014, published 2024)
